Results from patent US9049866B2, “Synergistic herbicidal combination of clomazone and pethoxamid” (CHEMINOVA A/S, priority 2008, dated 2015).

Experiments:
Format in all cases: in vivo
Echinochloa crus-galli = experiment: Field test in sunflowers, control of Echinochloa crus-galli (Example 1); details: sunflower field, spraying, clomazone 90 g/ha, pethoxamid 1200 g/ha, combination 90+1200 g/ha, 55 days after application, 0 = no damage, 100 = complete destruction
Description: (§1) In the Colby method, also referred to as the Limpels method, the action to be expected E for a given active ingredient combination obeys the so-called Colby formula. According to Colby, the expected action of active ingredients A+B using p+q ppm of active ingredient is:
(§2) [formula] where ppm=milligrams of active ingredient (=a.i.) per liter of spray mixture X=% action by component A using p ppm of active ingredient Y=% action by component B using q ppm of active ingredient. If the ratio R defined as the action actually observed (O) divided by the expected action (E) is >1 then the action of the combination is superadditive, i.e. there is a synergistic effect. […]
(§3) The herbicidal compounds A and B were applied in the formulation in which they are present as commercially available product. Damage by the herbicidal compositions was evaluated with reference to a scale of 0% to 100% in comparison with untreated control plots. […]
(§4) In a field of sunflowers, clomazone (rate of 90 g/ha) and pethoxamid (rate of 1200 g/ha) were applied individually and in combination (90+1200 g/ha) to different plots by spraying. 55 days after application the rate of control of various weeds was recorded. The expected control is calculated according to the Colby method.

Solanum nigrum = experiment: Field test in sunflowers, control of Solanum nigrum (Example 1); details: sunflower field, spraying, clomazone 90 g/ha, pethoxamid 1200 g/ha, combination 90+1200 g/ha, 55 days after application
Description: as §1, §2, §3, §4

Mercurialis annua = experiment: Field test in sunflowers, control of Mercurialis annua (Example 2); details: sunflower field, spraying, clomazone 90 g/ha, pethoxamid 1200 g/ha, combination 90+1200 g/ha, 50 days after application
Description: as §1, §2, §3
as §4, with “50” for “55”

Ambrosia artemisiifolia = experiment: Field test in sunflowers, control of Ambrosia artemisiifolia (Example 2); details: sunflower field, spraying, clomazone 90 g/ha, pethoxamid 1200 g/ha, combination 90+1200 g/ha, 50 days after application
Description: as §1, §2, §3
as §4, with “50” for “55”

Viola arvensis = experiment: Oilseed rape field test, control of Viola arvensis (Example 3); details: spraying, clomazone 72, pethoxamid 1200, combination 72 + 1200 g AI/hectare, 206 days after application
Description: as §1, §2, §3
In an oilseed rape field, Clomazone, and pethoxamid were applied individually and in combination to different plots by spraying. 206 days after application the rate of control of Viola arvensis was recorded. The expected control is calculated according to the Colby method.

Galium aparine = experiment: Oilseed rape field test, control of Galium aparine (Example 4); details: spraying, clomazone 72, pethoxamid 1200, combination 72 + 1200 g AI/hectare, 64 days after application
Description: as §1, §2, §3
In an oilseed rape field, Clomazone, and pethoxamid were applied individually and in combination to different plots by spraying. 64 days after application the rate of control of Galium aparine was recorded. The expected control is calculated according to the Colby method.

SMILES	Control observed (O) % (Echinochloa crus-galli) [%]	Control observed (O) % (Solanum nigrum) [%]	Control observed (O) % (Mercurialis annua) [%]	Control observed (O) % (Ambrosia artemisiifolia) [%]	Control observed (O) % (Viola arvensis) [%]	Control observed (O) % (Galium aparine) [%]
CC1(C)CON(Cc2ccccc2Cl)C1=O [Clomazone, clomazone]	50	37	13	10	0	40
CCOCCN(C(=O)CCl)C(=C(C)C)c1ccccc1 [Pethoxamid, pethoxamid]	47	47	27	10	50	0
